SMILES strings stand for the structures.

Here are results for twelve compounds from patent publication US9889101B2, “Therapeutic treatment of cancer and dysplasia of the cervix or vagina using estrogen antagonists” (Wisconsin Alumni Research Foundation, priority 2009, dated 2018).

One test has as its system ER. Conditions: undefined if not mentioned; cited from earlier work.
The test system of test [1] is K14E6/K14E7 double transgenic mice. The test is described as follows: Treatment of pre-existing cervical/vaginal cancer and dysplasia in estrogen-treated K14E6/K14E7 mice.
Experimental: Experimental mice were generated by crossing K14E7 hemizygote and K14E6 homozygote mice. Female progenies were genotyped by PCR and a slow-releasing 17β-estradiol (E2) tablet (0.05 mg/60 days) (Innovative Research of America) was inserted subcutaneously under the dorsal skin every two months beginning at 4-6 weeks of age. After 6-month treatment with E2, one group of mice was sacrificed immediately to evaluate cancer phenotypes (6M E2 group), another group was maintained for another month without further treatment (6M E2+1M without fulvestrant group), and the third group was treated with fulvestrant for a month (6M E2+1M with fulvestrant group).
Faslodex (50 mg/ml, human formulation of intramuscular injection of fulvestrant) was purchased from Astra Zeneca. Mice were subcutaneously injected with 0.15 ml (equivalent to 7.5 mg of fulvestrant) of Faslodex twice a week for a month (total of 9 injections).
Mice were subsequently injected with fulvestrant as described in Materials and Methods. Reproductive tracts were harvested, fixed in para-formaldehyde (PFA), and embedded in paraffin. Every tenth 5 μM section was stained with H&E and histopathologically scored to identify the worst grade of cervical/vaginal disease present in each animal. […] EVISTA® tablets were purchased from Eli Lilly and Company, which are human formulation of raloxifene (60 mg/tablet). Tablets were resuspended in phosphate buffered saline at a final concentration of 10 mg/ml. K14E6/K14E7 double transgenic mice were treated with E2 for 6 months and subsequently with raloxifene for a month by intraperitoneally injecting them with 0.15 ml of raloxifene suspension (equivalent to 1.5 mg) 5 days a week.
In test [2] the test system is CaSki cervical cancer cell line (ERα-negative). As to the kind of experiment: Subcutaneous CaSki tumors in nude mice. The class given is in vivo, human. Conditions: estrogen-treated nude mice, with fulvestrant 7.5 mg s.c. twice a week.
Test [3] deals with nontransgenic female mice. The test is described as follows: Uterine wet weight after one week of fulvestrant (dose finding). Conditions: two injections day 0 and day 3, uteri weighed day 7, normalized to body weight.
Text: The indicated dose was given to nontransgenic female mice by two injections at day 0 and day 3, and uteri were harvested and weighed at day 7. Uterine wet weight was normalized to body weight.
For test [4], the system named is K14E6/K14E7 double transgenic mice. As to the kind of experiment: Prevention of cervical/vaginal cancer in E2-treated K14E6/K14E7 mice (preventive fulvestrant).
Experimental: Mice. […] Experimental mice were generated by crossing K14E7 hemizygote and K14E6 homozygote mice. Female progenies were genotyped by PCR and a slow-releasing 17β-estradiol (E2) tablet (0.05 mg/60 days) (Innovative Research of America) was inserted subcutaneously under the dorsal skin every two months beginning at 4-6 weeks of age. After 6-month treatment with E2, one group of mice was sacrificed immediately to evaluate cancer phenotypes (6M E2 group), another group was maintained for another month without further treatment (6M E2+1M without fulvestrant group), and the third group was treated with fulvestrant for a month (6M E2+1M with fulvestrant group).
Fulvestrant treatment. Faslodex (50 mg/ml, human formulation of intramuscular injection of fulvestrant) was purchased from Astra Zeneca. Mice were subcutaneously injected with 0.15 ml (equivalent to 7.5 mg of fulvestrant) of Faslodex twice a week for a month (total of 9 injections).
In test [5] the test system is CVX1 human cervical cancer cells (ERα-positive). The test is described as follows: Subcutaneous CVX1 tumors in nude mice. Conditions: estrogen-treated nude mice, fulvestrant 7.5 mg s.c. twice a week, two-week treatment period. The class given is in vivo.
Where [6] appears, read: 6M E2 + 1M raloxifene 1.5 mg i.p. 5 days a week.
[7] abbreviates: 6M E2 + preventive fulvestrant (one month at the three-month time point), six-month endpoint.
[8] abbreviates: 6M E2 + preventive fulvestrant, six-month endpoint.
Setting [9] is: 6M E2 + 1M fulvestrant 7.5 mg s.c. twice a week, 13 mice.
[10] abbreviates: 6M estrogen then fulvestrant for two weeks.

As for `CC/C(=C(\c1ccccc1)c1ccc(OCCN(C)C)cc1)c1ccccc1` [Tamoxifen], the “Effect in cervix, vagina and endometrium” value with ER was “agonist in cervix, vagina,”.

In the case of `Cc1c(-c2ccc(O)cc2)n(Cc2ccc(OCCN3CCCCC3)cc2)c2ccc(O)cc12` [Pipendoxifene], in the test with ER, the “Effect in cervix, vagina and endometrium” value is reported as “antagonist in endometrium”.

With `O=C(c1ccc(OCCN2CCCCC2)cc1)c1c(-c2ccc(O)cc2)sc2cc(O)ccc12` [raloxifene], in test [1] (setting [6]), the “# mice w/ dysplasia only, CIN1” value is 0 (0); the “# mice w/ dysplasia only, CIN2” value was 0 (0); the “# mice w/ dysplasia only, CIN3” value is given as 0; the “# mice w/ dysplasia only, VIN1” value is recorded as 0 (0). In addition, in test [1] (setting [6]), the “# mice w/ dysplasia only, VIN2” value is given as 0 (0); the “# mice w/ dysplasia only, VIN3” value is 1; the “# mice w/cancer and dysplasia, Cervix” value is recorded as 0 (0); the “# mice w/cancer and dysplasia, Vagina” value is 0 (0). For the same compound, in test [1] (setting [6]), the “# mice with no dysplasia or cancer, Cervix” value amounted to 7; the “# mice with no dysplasia or cancer, Vagina” value is 6; the “mice w/cancer and dysplasia (%), Cervix” value is reported as 0 (0) %; the “mice w/cancer and dysplasia (%), Vagina” value was 0 (0) %. The “regression of cervical and vaginal disease including cancers” value in test [1] (6M E2 then raloxifene 1.5 mg i.p. 5 days a week for a month) is reported as “complete regression”. For the same compound, in the test on ER, the “Effect in cervix, vagina and endometrium” value is “neutral in endometrium”.

For the compound `CN(C)CCOc1ccc(/C(=C(/CCCl)c2ccccc2)c2ccccc2)cc1` [Toremifene], the “Effect in cervix, vagina and endometrium” value with ER was “agonist in endometrium”.

With `CC1=C(c2ccc(OC(=O)C(C)(C)C)cc2)[C@H](c2ccc(OCCN3CCCCC3)cc2)Oc2cc(OC(=O)C(C)(C)C)ccc21` [EM-800], the “Effect in cervix, vagina and endometrium” value in the test with ER was “antagonist in endometrium”.

With `COc1ccc2c(c1)OC(C)(C)[C@@H](c1ccccc1)[C@@H]2c1ccc(OCCN2CCCC2)cc1` [Levormeloxifene], the “Effect in cervix, vagina and endometrium” value in the test with ER is “agonist in endometrium”.

Turning to `CC/C(=C(/c1ccc(OCCN(C)C)cc1)c1cccc(O)c1)c1ccccc1` [Droloxifene], the “Effect in cervix, vagina and endometrium” value in the test with ER is on record as “agonist in endometrium”.

Take `CC/C(=C(\c1ccc(I)cc1)c1ccc(OCCN2CCCC2)cc1)c1ccccc1` [Idoxifene]: the “Effect in cervix, vagina and endometrium” value with ER is on record as “agonist in endometrium”.

As to `COc1ccc(-c2sc3cc(O)ccc3c2Oc2ccc(OCCN3CCCCC3)cc2)cc1` [Arzoxifene], in the test on ER, the “Effect in cervix, vagina and endometrium” value is on record as “antagonist in endometrium”.

For `COc1ccc2c(c1)OC(C)(C)C(c1ccccc1)C2c1ccc(OCCN2CCCC2)cc1` (centres unmarked) [Ormeloxifene], the “Effect in cervix, vagina and endometrium” value with ER is recorded as “antagonist in endometrium”.

Consider `Oc1ccc2c(c1)CC[C@H](c1ccccc1)[C@@H]2c1ccc(OCCN2CCCC2)cc1` [Lasofoxifene], for which the “Effect in cervix, vagina and endometrium” value with ER is given as “neutral in endometrium”.

As for `C[C@]12CC[C@@H]3c4ccc(O)cc4C[C@@H](CCCCCCCCC[S+]([O-])CCCC(F)(F)C(F)(F)F)[C@H]3[C@@H]1CC[C@@H]2O` (some centres unmarked) [fulvestrant], the CaSki tumor growth in test [2] came to 4.7 fold. The “decrease in uterine wet weight” value in test [3] (fulvestrant 10 mg/week) was 50%. Besides, the “reduction in uterine wet weight” value in test [3] (fulvestrant 15 mg/week) is recorded as 70%. In test [4] (setting [7]), the “# mice with no dysplasia or cancer, Cervix” value came out at 6 and the “# mice with no dysplasia or cancer, Vagina” value worked out at 6. In addition, in test [4] (setting [8]), the “# mice w/ dysplasia only, CIN1” value was 0 (0); the “# mice w/ dysplasia only, CIN2” value was 0 (0); the “# mice w/ dysplasia only, CIN3” value is recorded as 0 (0); the “# mice w/ dysplasia only, VIN1” value is reported as 0 (0). Further, in test [4] (setting [8]), the “# mice w/ dysplasia only, VIN2” value is 0 (0); the “# mice w/ dysplasia only, VIN3” value is 0 (0); the “# mice w/cancer and dysplasia, Cervix” value is on record as 0 (0); the “# mice w/cancer and dysplasia, Vagina” value is 0 (0). For the same compound, in test [4] (setting [8]), the “mice w/cancer and dysplasia (%), Cervix” value was 0 (0) %; the “mice w/cancer and dysplasia (%), Vagina” value is on record as 0 (0) %. For the same compound, the “cervical disease at the six-month endpoint” value in test [4] (fulvestrant for one month at the three-month time point of E2 treatment) is on record as “neither CIN nor cervical cancer”. In addition, in test [1] (setting [9]), the “number of mice with CIN1 as worst state (cervix)” value is 0 (0), the “number of mice with CIN2 as worst state (cervix)” value was 0 (0), the “number of mice with CIN3 as worst state (cervix)” value was 0 (0) and the “number of mice with VIN1 as worst state (vagina)” value is reported as 0 (0). In test [1] (setting [9]), the “number of mice with VIN2 as worst state (vagina)” value was 0 (0), the “number of mice with VIN3 as worst state (vagina)” value was 0 (0), the “number of mice with cervical cancer” value is 1 (1) and the “number of mice with no dysplasia (worst state of disease)” value is 11. In addition, the “number of mice with vaginal cancer” value in test [1] (setting [9]) is reported as 1 (1). In test [1] (6M E2 + 1M with fulvestrant), the “Average size of the largest tumor” value is reported as 0.02 ± 0.05^ mm^2; the “Tumor multiplicity, Cervix” value is 0.2 ± 0.5; the “Tumor multiplicity, Vagina” value is reported as 0.1 ± 0.3. Further, the “dysplastic lesions (CIN and VIN) in lower reproductive tract” value in test [1] (6M estrogen then fulvestrant for 1 month) is “absence of any grade of dysplastic lesions”. Besides, in test [1] (setting [10]), the “cancers in the lower reproductive tracts” value is listed as “still had cancers” and the “dysplastic lesions in lower reproductive tract” value is recorded as “absent”. Also, in test [1] (fulvestrant-treated mice), the “thickness of lower reproductive tract epithelia” value is listed as 2-3 layers of cells. The “mice in which cancers persisted after one-month fulvestrant” value in test [1] (of 13 mice, one cervical, one vaginal cancer) was found to be 2. For the same compound, in the test on ER, the “Effect in cervix, vagina and endometrium” value is given as “antagonist in cervix, vagina,”. Besides, the CVX1 tumor growth result in test [5] is given as “did not grow at all”.
